The term IC50 denotes the concentration at which inhibition is half-maximal. In general, inhibition refers to the share of the control response that was lost under treatment.

Active and inactive are the calls of the source. The rule behind the calls is not given here. A value given as a limit tells only on which side of the number the result lay.

The values below come from ChEMBL document CHEMBL5518204, “Discovery and Proof of Concept of Potent Dual Polθ/PARP Inhibitors for Efficient Treatment of Homologous Recombination-Deficient Tumors” (J Med Chem, 2024).

One data set concerns HCC1937. Briefly: Antiproliferative activity against BRCA1-deficient human HCC1937 cells assessed as inhibition of cell proliferation incubated for 5 days by MTT assay. The format is functional, cell-based. The following applies: HCC1937, 120 h. In general terms: Formazan colour is commonly taken as a measure of viable cells.
Data set [1] addresses T1, DNA polymerase theta (Homo sapiens, UniProt O75417). The data set is described as follows: Inhibition of human DNA polymerase theta (67 to 970 residues) ATPase activity expressed in Sf9 insect cells incubated for 40 mins by ADP-glo assay. A general note: ADP-Glo first removes unused ATP, then detects ADP through luciferase.
In another data set the test system is SW48. Briefly: Antiproliferative activity against BRCA2-deficient human SW48 cells assessed as inhibition of cell proliferation incubated for 5 days by MTT assay. The format is functional, cell-based. The following applies: SW48, 120 h, read-out: IC50.
The test system of data set [2] is MDA-MB-436. The data set is described as follows: Antiproliferative activity against BRCA1-deficient human MDA-MB-436 cells assessed as inhibition of cell proliferation incubated for 5 days by MTT assay. The data set is classed as functional, cell-based. The following applies: MDA-MB-436, 120 h.
For another data set, the system named is SK-OV-3. The data set is described as follows: Antiproliferative activity against BRCA-proficient human SK-OV-3 cells assessed as inhibition of cell proliferation incubated for 5 days by MTT assay. Particulars: SK-OV-3, 120 h. The format is functional, cell-based.
A short description of data set [3]: (§1) Antiproliferative activity against human MCF-10A cells assessed as inhibition of cell proliferation incubated for 5 days by MTT assay. The data set is classed as toxicity, cell-based. Particulars: human, MCF-10A cells.
For data set [4], the target named is T1, DNA polymerase theta. Briefly: Inhibition of DNA polymerase theta (unknown origin) ATPase activity incubated for 60 mins in presence of ATP by ADP-glo kinase assay.
The target of data set [5] is T1, DNA polymerase theta. Briefly: Inhibition of DNA polymerase theta (unknown origin) (1 to 899 residues) ATPase activity by NADH oxidation-coupled enzymatic assay.
In a further data set the test system is HCT-116. Briefly: Antiproliferative activity against BRCA2-deficient human HCT-116 cells assessed as inhibition of cell proliferation incubated for 5 days by MTT assay. The data set is classed as functional, cell-based. The following applies: HCT-116, 120 h.
In another data set the test system is MCF-10A. Described as §1. The following applies: mcf-10a. The format is toxicity, cell-based.
For data set [6], the target named is T2, Poly [ADP-ribose] polymerase 1 (Homo sapiens, UniProt P09874). Particulars: dose 10.0 nM, time 90.0 min.
In data set [7] the target is T2, Poly [ADP-ribose] polymerase 1. Briefly: Inhibition of human PARP1 incubated for 90 mins by colorimetric assay.
Data set [8] relates to MDA-MB-231. Briefly: Induction of DNA damage in human MDA-MB-231 cells assessed as increase in tail intensity at 2 to 10 uM incubated for 3 days in presence of olaparib by florescence microscopic analysis. The following applies: dose 2-10 µM, time 3.0 day. The format is functional, cell-based.
The test system of data set [9] is MDA-MB-231. The data set is described as follows: Antitumor activity against human MDA-MB-231 cells xenografted in BALB/c mouse assessed as tumor growth inhibition at 40 mg/kg, ip administered for 21 days. The data set is classed as functional. Particulars: MDA-MB-231, 504 h, time 21 day, read-out: TGI. (Xenograft models place foreign cells or tissue in a host animal.)

The test system of data set [10] is MDA-MB-231. The data set is described as follows: Induction of cell cycle arrest in human MDA-MB-231 cells assessed as accumulation of cells at G2/M phase at 10 uM incubated for 3 days in presence of olaparib by PI staining based flow cytometric analysis. The data set is classed as functional. The following applies: time 3.0 day.
For data set [11], the system named is MDA-MB-231. The data set is described as follows: Induction of DNA damage in human MDA-MB-231 cells assessed as increase in gammaH2AX foci at 2 to 10 uM incubated for 3 days in presence of olaparib by DAPI staining based confocal laser scanning microscopic analysis. The format is functional, cell-based. The following applies: dose 2-10 µM, time 3.0 day.
For data set [12], the system named is MDA-MB-231. Briefly: Induction of DNA damage in human MDA-MB-231 cells assessed as increase in tail intensity at 10 uM incubated for 3 days by florescence microscopic analysis. The data set is classed as functional, cell-based. The following applies: time 3.0 day.
The test system of data set [13] is MDA-MB-436. Briefly: Inhibition of colony formation in human MDA-MB-436 cells at 2 to 10 uM incubated for 9 days in presence of olaparib by crystal violet staining based analysis. The data set is classed as functional, cell-based. The following applies: dose 2-10 µM, time 9.0 day.
In data set [14] the test system is MDA-MB-231. Briefly: Induction of cell cycle arrest in human MDA-MB-231 cells assessed as accumulation of cells at G2/M phase at 10 uM incubated for 3 days by PI staining based flow cytometric analysis. The format is functional. The following applies: time 3.0 day.
In data set [15] the test system is MDA-MB-231. The data set is described as follows: Antiproliferative activity against 53BP1-knockdown human MDA-MB-231 cells incubated for 24 hrs by MTT assay. The format is functional, cell-based.
For data set [16], the system named is MDA-MB-231. Briefly: Antitumor activity against human MDA-MB-231 cells xenografted in BALB/c mouse assessed as tumor growth inhibition at 40 mg/kg, ip administered for 21 days in presence of olaparib. The data set is classed as functional. The following applies: MDA-MB-231, 504 h, time 21 day, read-out: TGI.
For data set [17], the system named is MDA-MB-231. Briefly: Induction of apoptosis in human MDA-MB-231 cells at 2 to 10 uM incubated for 3 days in presence of olaparib by Annexin V-APC/7-AAD based flow cytometry analysis. The data set is classed as functional. Particulars: dose 2-10 µM, time 3 day.
Data set [18] deals with MDA-MB-436. The data set is described as follows: Inhibition of colony formation in human MDA-MB-436 cells at 10 uM incubated for 9 days by crystal violet staining based analysis. The format is functional, cell-based. Particulars: time 9.0 day.
For data set [19], the system named is MDA-MB-231. The data set is described as follows: Induction of DNA damage in human MDA-MB-231 cells assessed as increase in gammaH2AX foci at 10 uM incubated for 3 days by DAPI staining based confocal laser scanning microscopic analysis. The format is functional, cell-based. The following applies: time 3.0 day.
The test system of data set [20] is MDA-MB-231. Briefly: Induction of apoptosis in human MDA-MB-231 cells at 10 uM incubated for 3 days by Annexin V-APC/7-AAD based flow cytometry analysis. The format is functional. Particulars: time 3 day.

T1 sequence (O75417 whole entry, the tested form may be a part): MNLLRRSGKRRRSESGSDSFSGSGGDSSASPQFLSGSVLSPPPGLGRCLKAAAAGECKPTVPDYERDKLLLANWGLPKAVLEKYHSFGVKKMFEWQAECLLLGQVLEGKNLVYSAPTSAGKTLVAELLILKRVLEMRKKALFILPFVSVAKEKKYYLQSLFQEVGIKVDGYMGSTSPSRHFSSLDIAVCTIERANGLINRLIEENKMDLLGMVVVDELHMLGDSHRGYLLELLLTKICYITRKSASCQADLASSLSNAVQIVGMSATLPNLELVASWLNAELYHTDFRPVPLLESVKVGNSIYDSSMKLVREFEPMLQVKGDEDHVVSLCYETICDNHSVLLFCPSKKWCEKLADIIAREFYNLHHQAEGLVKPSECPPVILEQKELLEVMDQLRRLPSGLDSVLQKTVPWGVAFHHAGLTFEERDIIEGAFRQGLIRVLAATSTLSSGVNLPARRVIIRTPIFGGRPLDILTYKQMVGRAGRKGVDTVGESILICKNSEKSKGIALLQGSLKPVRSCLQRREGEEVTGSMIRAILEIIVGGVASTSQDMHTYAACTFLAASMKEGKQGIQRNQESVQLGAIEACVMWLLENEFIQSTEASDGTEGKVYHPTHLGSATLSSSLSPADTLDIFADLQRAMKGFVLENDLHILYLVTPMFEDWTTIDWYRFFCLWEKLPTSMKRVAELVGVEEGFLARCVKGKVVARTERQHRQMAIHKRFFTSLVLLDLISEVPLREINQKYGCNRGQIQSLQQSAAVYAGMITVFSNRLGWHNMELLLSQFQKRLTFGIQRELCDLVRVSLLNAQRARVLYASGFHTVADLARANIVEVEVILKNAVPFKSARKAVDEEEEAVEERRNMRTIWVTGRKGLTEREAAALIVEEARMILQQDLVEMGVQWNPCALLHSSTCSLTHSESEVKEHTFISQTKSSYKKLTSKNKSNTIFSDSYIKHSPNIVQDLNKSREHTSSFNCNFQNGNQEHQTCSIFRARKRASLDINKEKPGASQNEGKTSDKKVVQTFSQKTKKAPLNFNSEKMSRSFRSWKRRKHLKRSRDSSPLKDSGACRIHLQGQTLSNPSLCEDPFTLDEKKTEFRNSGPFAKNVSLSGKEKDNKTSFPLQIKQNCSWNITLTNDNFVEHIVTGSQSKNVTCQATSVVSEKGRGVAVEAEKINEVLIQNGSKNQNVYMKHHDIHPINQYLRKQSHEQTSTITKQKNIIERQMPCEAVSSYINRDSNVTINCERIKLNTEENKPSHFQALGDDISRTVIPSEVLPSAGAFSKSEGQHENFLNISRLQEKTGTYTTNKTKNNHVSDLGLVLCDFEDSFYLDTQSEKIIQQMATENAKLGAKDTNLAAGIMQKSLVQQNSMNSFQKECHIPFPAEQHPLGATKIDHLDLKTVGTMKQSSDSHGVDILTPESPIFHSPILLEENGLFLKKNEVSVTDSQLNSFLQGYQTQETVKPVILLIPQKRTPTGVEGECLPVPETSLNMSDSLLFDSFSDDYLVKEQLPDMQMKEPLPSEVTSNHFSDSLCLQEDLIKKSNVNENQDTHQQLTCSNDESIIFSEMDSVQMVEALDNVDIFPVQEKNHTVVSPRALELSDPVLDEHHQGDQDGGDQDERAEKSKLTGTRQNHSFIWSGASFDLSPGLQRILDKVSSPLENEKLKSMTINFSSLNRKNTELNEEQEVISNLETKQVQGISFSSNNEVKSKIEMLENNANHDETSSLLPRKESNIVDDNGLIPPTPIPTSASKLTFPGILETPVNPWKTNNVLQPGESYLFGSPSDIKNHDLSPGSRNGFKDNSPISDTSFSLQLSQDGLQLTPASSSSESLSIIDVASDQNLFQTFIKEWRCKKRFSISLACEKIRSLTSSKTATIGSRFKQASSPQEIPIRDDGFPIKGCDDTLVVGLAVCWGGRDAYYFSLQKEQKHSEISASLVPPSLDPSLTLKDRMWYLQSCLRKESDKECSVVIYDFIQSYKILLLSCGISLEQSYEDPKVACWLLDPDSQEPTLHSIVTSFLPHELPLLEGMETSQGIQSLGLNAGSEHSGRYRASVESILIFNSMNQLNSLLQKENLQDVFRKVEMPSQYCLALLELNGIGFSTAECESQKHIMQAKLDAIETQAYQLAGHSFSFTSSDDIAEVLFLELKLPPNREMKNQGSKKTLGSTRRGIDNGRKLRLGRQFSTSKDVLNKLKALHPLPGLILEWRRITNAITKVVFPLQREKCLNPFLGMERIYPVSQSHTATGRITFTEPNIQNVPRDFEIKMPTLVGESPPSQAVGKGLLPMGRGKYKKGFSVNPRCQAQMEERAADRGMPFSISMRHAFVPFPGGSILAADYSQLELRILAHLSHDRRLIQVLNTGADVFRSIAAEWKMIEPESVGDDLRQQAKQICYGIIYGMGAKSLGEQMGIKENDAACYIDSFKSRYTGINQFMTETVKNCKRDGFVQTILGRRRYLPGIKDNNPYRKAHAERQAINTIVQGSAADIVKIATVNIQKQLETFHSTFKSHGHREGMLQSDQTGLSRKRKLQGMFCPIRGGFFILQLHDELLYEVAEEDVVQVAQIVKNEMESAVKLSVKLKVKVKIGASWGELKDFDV
T2 sequence (P09874 whole entry): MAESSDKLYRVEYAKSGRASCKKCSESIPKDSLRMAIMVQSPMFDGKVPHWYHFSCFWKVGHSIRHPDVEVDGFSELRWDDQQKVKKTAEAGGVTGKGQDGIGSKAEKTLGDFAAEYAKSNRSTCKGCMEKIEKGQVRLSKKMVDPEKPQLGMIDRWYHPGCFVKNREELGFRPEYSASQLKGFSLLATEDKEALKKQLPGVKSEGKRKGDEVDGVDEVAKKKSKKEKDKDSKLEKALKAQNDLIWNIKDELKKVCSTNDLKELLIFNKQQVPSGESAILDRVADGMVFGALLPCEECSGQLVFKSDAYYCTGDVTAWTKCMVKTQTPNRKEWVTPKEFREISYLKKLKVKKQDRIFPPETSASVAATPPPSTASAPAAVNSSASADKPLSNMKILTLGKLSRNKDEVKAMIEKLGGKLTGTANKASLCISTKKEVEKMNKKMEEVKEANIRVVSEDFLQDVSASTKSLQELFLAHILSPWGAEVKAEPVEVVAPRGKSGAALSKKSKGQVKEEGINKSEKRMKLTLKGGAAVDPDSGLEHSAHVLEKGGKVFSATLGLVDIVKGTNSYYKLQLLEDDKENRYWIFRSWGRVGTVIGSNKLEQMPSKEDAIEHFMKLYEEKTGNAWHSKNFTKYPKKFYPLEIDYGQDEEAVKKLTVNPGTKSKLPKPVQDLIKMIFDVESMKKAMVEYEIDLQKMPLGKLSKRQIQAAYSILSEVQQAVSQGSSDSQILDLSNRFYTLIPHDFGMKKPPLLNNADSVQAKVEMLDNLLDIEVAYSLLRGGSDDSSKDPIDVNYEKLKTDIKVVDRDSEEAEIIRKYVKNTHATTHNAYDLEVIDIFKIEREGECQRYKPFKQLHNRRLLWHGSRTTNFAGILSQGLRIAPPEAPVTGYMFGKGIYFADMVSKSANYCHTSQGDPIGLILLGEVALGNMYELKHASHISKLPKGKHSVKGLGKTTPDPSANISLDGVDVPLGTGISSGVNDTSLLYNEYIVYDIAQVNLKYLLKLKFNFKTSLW

With `COc1ccccc1-c1cnccc1C(=O)Nc1nnc(OCc2ccc(Cl)cc2)s1`, the concentration for half-maximal inhibition (IC50) with HCC1937 amounted to 61.9 µM; against DNA polymerase theta [1] it was 0.0024 µM; in the data set with SW48, 13.4 µM; with MDA-MB-436 [2], 59.4 µM; with SK-OV-3, 92.1 µM; on DNA polymerase theta [4] it was 0.0024 µM. Further, the half-maximal inhibitory concentration (IC50) at DNA polymerase theta [5] was less than 0.2 µM; with HCT-116, 46.3 µM. The IC50 at 5 days in data set [3] was greater than 80 µM.
As for `COc1ccccc1-c1cnccc1C(=O)Nc1nnc(OCC2CCN(C(=O)c3cc(Cc4n[nH]c(=O)c5ccccc45)ccc3F)CC2)s1`, the IC50 with HCC1937 was 18.1 µM; in the data set with MDA-MB-436 [2] it was 5.6 µM; with SK-OV-3, 32.6 µM; with MCF-10A, “Non-Toxic”; at DNA polymerase theta [4], 0.117 µM; in the data set on HCT-116 it was 17.6 µM. In data set [6], this compound had an inhibition of 91.6%.
`COc1ccccc1-c1cnccc1C(=O)Nc1ncc(N2CCN(C(=O)c3cc(Cc4n[nH]c(=O)c5ccccc45)ccc3F)CC2)s1`: the IC50 on DNA polymerase theta [4] was greater than 1 µM. Also, the inhibition in [6] worked out at 93.1%.
Regarding `COc1ccccc1-c1cnccc1C(=O)N1CCN(C(=O)c2cc(Cc3n[nH]c(=O)c4ccccc34)ccc2F)CC1`, at DNA polymerase theta [4], the IC50 is greater than 1 µM. Further, in [6], the inhibition was 87.9%.
As to `COc1ccccc1-c1cnccc1C(=O)Nc1nnc(OC2CC3(CCN(C(=O)c4cc(Cc5n[nH]c(=O)c6ccccc56)ccc4F)CC3)C2)s1`, the IC50 on DNA polymerase theta [4] came out at 0.166 µM. The compound further displayed an inhibition in [6] of 47%.
For the compound `COc1ccc(F)cc1-c1cc(C)ncc1C(=O)Nc1nnc(OC2CC3(CCN(C(=O)c4cc(Cc5n[nH]c(=O)c6ccccc56)ccc4F)CC3)C2)s1`, the IC50 was 57.8 µM in the data set with HCC1937; 0.0047 µM in data set [7]; 9.1 µM in the data set on MDA-MB-436 [2]; greater than 80 µM in the data set on SK-OV-3; “Non-Toxic” in the data set on MCF-10A; 0.0719 µM on DNA polymerase theta [4]. Moreover, the IC50 in the data set on HCT-116 worked out at 8.4 µM. Moreover, in [6], the inhibition is 70.1%.
As to `CO[C@@H]1[C@@H](OC(N)=O)[C@@H](O)[C@H](Oc2ccc3c(O)c(NC(=O)c4ccc(O)c(CC=C(C)C)c4)c(=O)oc3c2C)OC1(C)C` [NOVOBIOCIN], the result in the data set on MDA-MB-231 [8], with MDA-MB-231 [10], with MDA-MB-231 [11], with MDA-MB-231 [12], in the data set on MDA-MB-231 [14] and with MDA-MB-231 [15] was Active. Besides, the result with MDA-MB-231 [19] was Active. Further, the IC50 in the data set on HCC1937 was greater than 80 µM; with SW48, greater than 80 µM; with MDA-MB-436 [2], 24.3 µM; with SK-OV-3, greater than 80 µM; with HCT-116 it was greater than 80 µM. Moreover, the values for the inhibition in vivo at 40 mg/kg in the data set on MDA-MB-231 [9] and in the data set on MDA-MB-231 [16] were 45% and 62.5%, respectively. Moreover, the inhibition entry in the data set on MDA-MB-436 [13] and in the data set with MDA-MB-436 [18] was “Active” throughout. The IC50 at 5 days in data set [3] is greater than 80 µM. Besides, the Activity in the data set on MDA-MB-231 [17] is reported as 14.2%; in the data set on MDA-MB-231 [20] it was 6.4%.
As for `COc1ccccc1-c1cnccc1C(=O)Nc1nnc(OC2CC3(C2)CN(C(=O)c2cc(Cc4n[nH]c(=O)c5ccccc45)ccc2F)C3)s1`, at DNA polymerase theta [4], the IC50 was 0.268 µM. Also, in data set [6], the inhibition was 56.4%.
For the compound `COc1cnc(C(F)F)cc1-c1cc(N2CCC(C)CC2=O)ncc1C(=O)Nc1nnc(C#CC2CC2)s1` (configuration not stated), the IC50 against DNA polymerase theta [5] was less than 0.2 µM.
